Results: PMC5841303, “In silico screening for human norovirus antivirals reveals a novel non-nucleoside inhibitor of the viral polymerase” (Scientific Reports, 2018)

Experiments:
norovirus RdRp = experiment: Counter-screen gel-shift RdRp assay (primed elongation of PE44-NoV template); format: biochemical, human norovirus; details: fixed concentration of 100 µM
Experimental: In this assay, a 32 nucleotide RNA template (PE44-NoV) is extended to 44 nucleotides in the presence of an active RdRp[16]. […] Inhibition of primed elongation of the PE44-NoV template was examined at a fixed concentration of 100 µM (Fig. 4D). In the absence of inhibition (0.5% DMSO vehicle only) the RNA template was extended to 44 nucleotides (Fig. 4D), evidenced by an upward gel shift and the appearance of the second, higher band.
Fluorescent RdRp activity assays were carried out as previously described[14],[62]. Briefly, RdRp activity was quantified by monitoring the formation of double-stranded RNA (dsRNA) from a single stranded homopolymeric template, poly(C) (Sigma Aldrich, St Louis, MO, USA), using the fluorescent dye PicoGreen (Life Technologies, Carlsbad, CA, USA). RdRp assays were performed in 384-well plates, and each reaction mixture contained 400 ng enzyme, 45 µM GTP, 10 ng/µL poly(C) RNA, 2.5 mM MnCl2, 5 mM dithiothreitol, (DTT), 0.01% bovine serum albumin (BSA), and 0.005% Tween 20 in 20 mM Tris-HCl, pH 7.5, with a final reaction volume of 25 µL. The previous published norovirus NNI NIC02 was used as a positive control. RdRps were incubated for 10 mins at 30 °C in the presence of the test compounds or the compound vehicle DMSO (0.5% vol/vol) before addition into the reaction mixture, which was then allowed to run 15 min at 30 °C then terminated with 10 mM EDTA, followed by PicoGreen staining and dsRNA quantitation. GraphPad Prism V6.05 (La Jolla, CA, USA) was used to plot the IC50 values. In cases where fluorescent enhancement was recorded for a compound instead of inhibition, a secondary gel-based polymerase activity assay was used as a counter-screen as described below, to exclude the possibility of RdRp activity enhancement (Supplementary Fig. S1). Primed elongation activity was examined in a gel-based assay as previously described[16],[63] using the RNA template (PE44-NoV, Fig. 4D). Gels were imaged using BioRad (Hercules, CA, U.SA) Geldoc Universal Hood II, running BioRad Image Lab software, V4.1, build 16. Antagonism was calculated using Compusyn software V1.0[59]. 54 and PPNDS (4:1 ratio) were tested alone and together against norovirus Sydney 2012 RdRp.

RHDV RdRp = experiment: Fluorescent RdRp activity assay, RHDV RdRp; format: biochemical, rabbit haemorrhagic disease virus; details: fixed concentration of 100 µM
Text: The antiviral activity of the four compounds (11, 13, 42a and 54) were examined for inhibition of RNA polymerases from other viruses spanning three genera of the Caliciviridae family, including Norovirus (human norovirus and MNV), Lagovirus (rabbit haemorrhagic disease virus [RHDV]) and Sapovirus (human sapovirus). […] The protein sequence of the examined calicivirus polymerases has an identity range between 30.2–61.4%, and therefore the broad-spectrum activity of these compounds could be attributed to a common, highly-conserved binding pocket across the RdRps, as has been previously reported with broad-spectrum activity of other site-B binding NNIs[16]. […]
(§1) Fluorescent RdRp activity assays were carried out as previously described[14],[62]. Briefly, RdRp activity was quantified by monitoring the formation of double-stranded RNA (dsRNA) from a single stranded homopolymeric template, poly(C) (Sigma Aldrich, St Louis, MO, USA), using the fluorescent dye PicoGreen (Life Technologies, Carlsbad, CA, USA). […] RdRps were incubated for 10 mins at 30 °C in the presence of the test compounds or the compound vehicle DMSO (0.5% vol/vol) before addition into the reaction mixture, which was then allowed to run 15 min at 30 °C then terminated with 10 mM EDTA, followed by PicoGreen staining and dsRNA quantitation. […] Antagonism was calculated using Compusyn software V1.0[59]. […]

[1] = CellTitre Blue cell viability (cytotoxicity) assay; format: cell-based; details: mouse, RAW264.7 mouse macrophage cells, 0.5–100 µM, read-out: CC50 (half maximal cytotoxic concentration)
Experimental: As mentioned above, the only robust cellular assay available for the evaluation of potential norovirus inhibitors is the closely related MNV assay. […] Consequently, 54 was further assessed to determine the IC50 value against MNV RdRp activity using an in vitro fluorescent assay. […] 54 was then assessed for cytotoxicity against RAW264.7 mouse macrophage cells using a cell viability assay. […] Using the plaque reduction assay, the inhibitory effects of 54 (0.5–50 µM) were examined against MNV plaque formation in cell culture. […] Compound solubility and its cell-membrane permeability properties could be further improved with structure-activity relationship enhancement of the 54 scaffold to facilitate cellular uptake, and therefore to increase antiviral efficacy. Work on this aspect is ongoing, and it will be reported in due course.
MNV-1 (CW1) culture assays were performed as previously described. Replication was examined using plaque assays[58],[64],[65]. Cytotoxicity was examined using a CellTitre Blue (Promega, Madison, WI, USA) viability assay as described previously.

Q414A norovirus RdRp = molecular target: T1, Q414A norovirus RdRp (Norovirus GII.4 (Norwalk virus, human norovirus), UniProt K4L8Z7, Q1603A); experiment: Fluorescent RdRp assay, Q414A mutant RdRp; format: biochemical; details: 0.1–100 µM
T1 sequence (K4L8Z7 1190-1699 Q1603A): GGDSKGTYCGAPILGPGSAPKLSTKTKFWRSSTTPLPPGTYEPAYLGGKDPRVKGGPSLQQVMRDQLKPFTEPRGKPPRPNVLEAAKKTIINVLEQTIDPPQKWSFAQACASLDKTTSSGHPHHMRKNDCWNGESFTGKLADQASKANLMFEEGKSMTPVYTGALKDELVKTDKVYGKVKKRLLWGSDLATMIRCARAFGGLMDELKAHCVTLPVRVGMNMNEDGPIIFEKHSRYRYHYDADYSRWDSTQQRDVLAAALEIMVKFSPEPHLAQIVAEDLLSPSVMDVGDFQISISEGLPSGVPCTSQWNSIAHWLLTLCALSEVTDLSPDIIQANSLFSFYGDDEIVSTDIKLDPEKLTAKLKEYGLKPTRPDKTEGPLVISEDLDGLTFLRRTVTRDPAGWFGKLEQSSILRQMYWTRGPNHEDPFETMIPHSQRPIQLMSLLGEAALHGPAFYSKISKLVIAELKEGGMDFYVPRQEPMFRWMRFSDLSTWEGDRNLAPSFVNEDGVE
Text: Given the evidence of 54 being a site-B binding NNI, residues Q414 and R419 were mutated to alanine. These residues were previously shown by our research group and others to be critical for human norovirus RdRp site-B binding NNIs, and can create resistance to the drug through their mutagenesis[16],[17],[39]. After the mutant RdRps’ transcriptional activity was confirmed in a fluorescent RdRp assay (Q414A: 54%, R419A: 34% of wild-type activity, respectively), dose-response curves for 54 (0.1–100 µM) were produced to compare the IC50 values between the wild-type RdRp and the two mutant RdRps, Q414A and R419A (Fig. 13B). […]
as §1

Structure (SMILES): O=C1NN(c2ccccc2)C(=O)/C1=C/c1ccc(-c2ccc(S(=O)(=O)Nc3ccccc3)cc2)o1 [Compound 54]
- inhibition of primed elongation activity (gel-shift) (norovirus RdRp): near complete abolishment of norovirus RdRp activity
- inhibition of RHDV RdRp activity (RHDV RdRp): 99.0%
- CC50 [1]: 62.8 µM
- IC50 (Q414A norovirus RdRp): 7.8 µM
